Measurements published in US10799521B2, “Use of icaritin in preparing medicament for preventing or treating hematocytopenia” (Lunan Pharmaceutical Group Corporation, priority 2013, dated 2020).
Marks after values point to notes of the source that are not given here.

Test system: normal mice
Assay: Bleeding time in normal mice (tail tip cut)
Type: in vivo, Kunming mice
Design: unit not given here
Conditions: 3 days, 1 h after last administration
Description: 100 Kunming mice were randomly divided into 5 groups, i.e. the blank control group (normal saline group), the icariin group (positive control group), the high-dose icaritin group, the medium-dose icaritin group, and the low-dose icaritin group. Each group was administered as follows. Blank control group: administered with the same volume of normal saline by subcutaneous injection; Icariin group: administered with 2 mg/kg of icariin by injection; High-dose icaritin group: administered with the injection of icaritin of Example 1 by subcutaneous injection at a dosage of 10 mg/kg; Medium-dose icaritin group: administered with the injection of icaritin of Example 1 by subcutaneous injection at a dosage of 5 mg/kg; Low-dose icaritin group: administered with the injection of icaritin of Example 1 by subcutaneous injection at a dosage of 1 mg/kg. Measurement of the bleeding time: The normal saline group (blank control group), the icariin group (positive control group), and the icaritin administration groups (high-, medium-, and low-dose groups) were designed as follows: 50 mice were selected, weighed, and randomly divided into 5 groups, with 10 mice in each group. The animals were administered consecutively for 3 days. At 1 h after the last administration, a filter paper was rolled to form a filter paper cartridge with a diameter similar to that of the mouse body, which was closed at one end. The mouse was allowed to climb into the cartridge. Then about 3 mm of tail tip of the mouse was cut with scissors. A stopwatch was started to record the time when the bleeding started. The tail tip of the mouse was point-contacted with a filter paper gently every 15 s until there was no blood or no blood can be seen.

For `COc1ccc(-c2oc3c(CC=C(C)C)c(O)cc(O)c3c(=O)c2O)cc1` [Icaritin], the “Bleeding Time” value (high dose 10 mg/kg sc) was 1.86 ± 0.24**^ΔΔ, the “Bleeding Time” value (low dose 1 mg/kg sc) was 3.75 ± 0.46 and the “Bleeding Time” value (medium dose 5 mg/kg sc) was 2.51 ± 0.35**^Δ.
